Data taken from patent US20190076496A1, “POLYSACCHARIDE DIGESTION INHIBITOR” (Q' SAI CO., LTD., priority 2016, published 2019).

Legend:
Assay type in all cases: in vivo
[1] = tested on: GK rat (Goto-Kakizaki rat); test: Measurement of blood glucose level after loading starch; conditions: 60 minutes after starch 2 g/kg; acarbose 10 mg/kg body weight oral
Description: Each GK rat (Goto-Kakizaki rat) was allowed to orally ingest an Astilbe thunbergii extract and immediately thereafter to orally ingest starch, and the blood glucose level up to 2 hours later was measured over time (Approach 4). In the case of a GK rat, since hyperglycemia is caused due to its low insulin secretion amount after meal, it is possible to sensitively analyze the influence of drugs on the digestion and absorption of saccharides.
[Approach 4: Measurement of Blood Glucose Level after Loading Starch]
GK rats (male, 5 weeks old) were obtained from Japan SLC, Inc. and preliminarily bred for 1 week before use. Seven rats per experimental group were used.
(1) Japanese Pharmacopeia water for injection (a negative control))
(2) A solution having acarbose dissolved in the water for injection (a positive control); administered at 10 mg/kg body weight
(3) A suspension having the hydrous ethanol extract of Astilbe thunbergii suspended in the water for injection; administered at 100 mg/kg body weight or 300 mg/kg body weight […]
Each GK rat was fasted for 18 hours and its fasting blood glucose level was then measured. […] Blood was collected from the tail vein 30, 60, 90 and 120 minutes after the administration of starch, and the blood glucose level was measured using a simple type blood glucose meter (NIPRO Freestyle Freedom Lite, FS Blood Glucose Sensor Light, manufactured by Nipro Corporation).

[2] = tested on: GK rat (Goto-Kakizaki rat); test: Measurement of blood glucose level after loading sucrose; conditions: 90 minutes after sucrose 2 g/kg; acarbose 10 mg/kg oral
Description: Each GK rat was fasted for 18 hours and its fasting blood glucose level was then measured. Thereafter, the test substance was orally administered to the rat using a disposable gastric probe and a disposable syringe. Two minutes after the administration of the test substance, starch (dissolved in purified water, at 2 g/kg body weight) was administered in a single oral dose. Blood was collected from the tail vein 30, 60, 90 and 120 minutes after the administration of starch, and the blood glucose level was measured using a simple type blood glucose meter (NIPRO Freestyle Freedom Lite, FS Blood Glucose Sensor Light, manufactured by Nipro Corporation).
As described above, since the digestion process from starch to dextrose depends on the enzyme activities of both α-amylase and α-glucosidase, it cannot be ruled out from the results of Test Example 3 that the Astilbe thunbergii extract might inhibit only one of the enzyme activities in the body of an animal (the activity of the other enzyme activity cannot be inhibited). Accordingly, the digestion inhibitory effect of Astilbe thunbergii extract was analyzed using sucrose for which the digestion process depends only on α-glucosidase. Specifically, in the Approach 4, the blood glucose was measured using “sucrose (dissolved in purified water, at 2 g/kg body weight)” instead of “starch (dissolved in purified water, at 2 g/kg body weight)”. […]

[3] = tested on: GK rat (Goto-Kakizaki rat); test: Measurement of blood glucose level after loading glucose (dextrose)
Description: Specifically, each GK rat was allowed to orally ingest the Astilbe thunbergii extract and dextrose and its influence on a change in the blood glucose level was analyzed (Approach 5). In this analysis, an experiment group orally ingesting anagliptin, a DPP-IV inhibitor, was used as a positive control.
[Approach 5: Measurement of Blood Glucose Level after Loading Glucose]
(1) Japanese Pharmacopeia water for injection (a negative control)
(2) A solution having anagliptin dissolved in the water for injection (a positive control); administered at 10 mg/kg body weight
(3) A suspension having, the hydrous ethanol extract of Astilbe thunbergii prepared in the Test Example 2, suspended in the water for injection; administered at 100 mg/kg body weight or 300 mg/kg body weight
Administration and Measurement of Blood Glucose Level
Each GK rat (8-week-old male rat, 7 rats/experimental group) was fasted for 18 hours and its fasting blood glucose level was then measured. Thereafter, the test substance was orally administered to the rat using a disposable gastric probe and a disposable syringe. […] Blood was collected from the tail vein 30, 60, 90 and 120 minutes after the administration of dextrose, and the blood glucose level was measured using a simple type blood glucose meter (NIPRO Freestyle Freedom Lite, FS Blood Glucose Sensor Light, manufactured by Nipro Corporation).

## C[C@H]1O[C@H](O[C@H]2[C@H](O)[C@@H](O)[C@@H](O[C@H]3[C@H](O)[C@@H](O)C(O)O[C@@H]3CO)O[C@@H]2CO)[C@H](O)[C@@H](O)[C@@H]1N[C@H]1C=C(CO)[C@@H](O)[C@H](O)[C@H]1O (stereo partly shown) [acarbose]
[1]
  blood glucose level: 117 ± 43 mg/dL
[2]
  blood glucose level: 161 ± 45 mg/dL

## Cc1cc2ncc(C(=O)NCC(C)(C)NCC(=O)N3CCC[C@H]3C#N)cn2n1 [anagliptin]
[3]; 0 to 120 minutes after dextrose, anagliptin 10 mg/kg, extract 100 or 300 mg/kg
  glucose AUC compared with negative control: significantly decreases the glucose AUC
[3]; after dextrose 2 g/kg, anagliptin 10 mg/kg oral, decrease since 60 minutes later
  time course of blood glucose level compared with negative control: began to decrease earlier than that in the negative control
